Data as given in patent US6809096B1, “Phenanthroline-7-one derivatives and their therapeutic uses” (Laboratoire L. Lafon, priority 1999, dated 2004).

What was measured:
[1] = test system: leukaemia cell model; details: cytotoxicity; cited from earlier work
[2] = test system: 12 human cancer cell lines (U-373MG, U-87MG, SW1088, A549, A-427, HCT-15, LoVo, T-47D, MCF7, J82, T24, PC-3); assay: Cytotoxic activity on tumour cell lines in culture (MTT test); format: cell-based; details: Homo sapiens, mean IC50 calculated from the individual cytotoxic activities on each of the 12 tumour lines, 72 hours incubation
Experimental: 1—Cytotoxic Activity on Tumour Cell Lines in Culture (MTT Test)
The influence of the compounds of formula (I) and of (Ia) on tumour cells was evaluated using the MTT calorimetric test (T. Mosman, J. Immunol. Methods, 1983; 65: 55-63, J. Carmichael et al., Cancer Res. 1987; 47: 936-942).
The principle of the MTT test is based on the mitochondrial reduction by metabolically active alive cells of the yellow-coloured product MTT (3-(4,5-dimethylthiazol-2-yl)-2,5-diphenyltetrazolium bromide) to a blue-coloured product, formazan. The amount of formazan thus obtained is directly proportional to the amount of live cells present in the culture well or wells. This amount of formazan is measured by spectrophotometry.
The cell lines are maintained in monolayer culture at 37° C. in stoppered culture dishes containing 25 MM HEPES MEM (Minimum Essential Medium) base medium. This medium is well suited to the growth of a range of varied diploid or primary mammalian cells. This medium is subsequently supplemented: […]
with an amount of 5% of FCS (Foetal Calf Serum) decomplemented at 56° C. for 1 hour, with 0.6 mg/ml of L-glutamine, with 200 IU/ml of penicillin, with 200 μg/ml of streptomycin, with 0.1 mg/ml of gentamicin.
The 12 human cancer cell lines which were used were obtained from the American Type Culture Collection (ATCC, Rockville, Md., USA). These 12 cell lines are:
U-373MG (ATCC code: HTB-17) and U-87MG (ATCC code: HTB-14), which are two glioblastomas, SW1088 (ATCC code: HTB-12) which is an astrocytoma, A549 (ATCC code: CCL-185) and A-427 (ATCC code: HTB-53), which are two non-small-cell lung cancers, HCT-15 (ATCC code: CCL-225) and LoVo (ATCC code: CCL-229), which are two colorectal cancers, T-47D (ATCC code: HTB-133) and MCF7 (ATCC code: HTB-22), which are two breast cancers, J82 (ATCC code: HTB-1) and T24 (ATCC code: […]), which are two bladder cancers, PC-3 (ATCC code: CRL-1435), which is a prostate cancer.
Experimentally: 100 μl of a cell suspension comprising 20 000 to 50 000 (depending on the cell type used) cells/ml of culture medium are inoculated in flat-bottomed 96-well multi-well plates and are incubated at 37° C. under an atmosphere comprising 5% of CO2 and 70% humidity. After incubating for 24 hours, the culture medium is replaced with 100 μl of fresh medium comprising either the various test compounds at concentrations varying from 10^−5 to 10^−10 M of the solvent used to dissolve the -test products (control condition). After incubating for 72 hours under the above conditions, the culture medium is replaced with 100 μl of a yellowish solution of MTT dissolved, in a proportion of 1 mg/ml, in RPMI 1640. The microplates are reincubated for 3 hours at 37° C. and then centrifuged for 10 minutes at 400 g. The yellowish MTT solution is removed and the blue formazan crystals formed at the cellular level are dissolved in 100 μl of DMSO. The microplates are subsequently agitated for 5 minutes. The intensity of the resulting blue coloration, and thus of the conversion of the yellow MTT product into blue formazan by the cells which are still alive at the end of the experiment, is quantified by spectrophotometry using a device of DYNATECH IMOASSAY SYSTEM type at wavelengths of 570 nm and 630 nm corresponding respectively to the maximum absorption wavelengths of formazan and to the background noise. Software built into the spectrophotometer calculates the mean optical density values and the standard deviation (Std. Dev.) and standard error of the mean (SEM) values.
The inhibitory activity on the cell growth of the compounds of formula (I) and (Ia) on the various tumour cell lines was measured in comparison with that of the natural product.

[3] = Determination of the maximum tolerated dose (MTD); details: mouse, in vivo, ip; B6D2F1/Jico mice, single intraperitoneal administration, survival over 14 days, doses 2.5 to 160 mg/kg; read-out: DMT (mg/kg) (Maximum Tolerated Doses)
Experimental: 2—Determination of the Maximum Tolerated Dose (MTD)
The evaluation of the maximum tolerated dose was carried out on B6D2F1/Jico mice aged from 4 to 6 weeks. The compounds were administered intraperitoneally at increasing doses ranging from 2.5 to 160 mg/kg. The value of the MTD (expressed in mg/kg) is determined from the observation of the survival rates of the animals over a period of 14 days after a single administration of the product under consideration. The change in the weight of the animals is also monitored over this period. When that the value of the MTD is greater than 160 mg/kg, the value of the MTD is categorized as 160 mg/kg by default.

Row | melting point [°C] | Molecule | ED50 [1] [µg/mL] | IC50 [2] [nM] | MTD at 14 days [3] [mg/kg]
1 |  | 2-bromoleptoclinidone | 0.4 |  | 
2 | > 260 | I.I.O=C1c2ncccc2-c2nccc3c(O)cnc1c23 [CRL 8487, 4-Hydroxy-7H-pyrido[4,3,2-de][1,7]phenanthroline-7-one dihydroiodide] |  |  | 
3 | > 260 | O=C1c2ncccc2-c2nccc3c(Cl)cnc1c23 [CRL 8480, 4-Chloro-7H-pyrido[4,3,2-de][1,7]phenanthroline-7-one] |  |  | 
4 | 246 | CN(C)c1cc(Cl)nc2c1-c1nccc3ccnc(c13)C2=O [CRL 8486, 9-Chloro-11-dimethylamino-7H-pyrido[4,3,2-de][1,7]phenanthroline-7-one] |  |  | 
5 |  | O=C1c2c(Cl)ccnc2-c2nccc3ccnc1c23 [CRL 8396, 8-Chloro-7H-pyrido[4,3,2-de][1,10]phenanthroline-7-one] |  | 600 | 20
6 |  | COc1ccnc2c1-c1nccc3ccnc(c13)C2=O [CRL 8364, 11-methoxy-7H-pyrido[4,3,2-de][1,7]phenanthroline-7-one] |  | 270 | 5
7 | > 260 | COc1ccc2c(n1)C(=O)c1ncc(OC)c3ccnc-2c13 [CRL 8479, 4,9-Dimethoxy-7H-pyrido[4,3,2-de][1,7]phenanthroline-7-one] |  |  | 
8 | > 260 | COc1ccc2c(n1)C(=O)c1nccc3ccnc-2c13 [CRL 8484, 9-Methoxy-7H-pyrido[4,3,2-de][1,7]phenanthroline-7-one] |  |  | 
9 |  | COc1ccnc2c1C(=O)c1nccc3ccnc-2c13 [CRL 8363, 8-Methoxy-7H-pyrido[4,3,2-de][1,10]phenanthroline-7-one] |  | 500 | 10
10 |  | COc1cnc2c3c(nccc13)-c1cccnc1C2=O [CRL 8401, 4-Methoxy-7H-pyrido[4,3,2-de][1,7]phenanthroline-7-one] |  | 53 | > 160
11 |  | COc1ccnc2c1-c1nccc3c(OC)cnc(c13)C2=O [CRL 8440, 4,11-Dimethoxy-7H-pyrido[4,3,2-de][1,7]phenanthroline-7-one] |  | 10 | 20
12 | > 260 | CN(C)c1cnc2c3c(nccc13)-c1cccnc1C2=O [CRL 8481, 4-Dimethylamino-7H-pyrido[4,3,2-de][1,7]phenanthroline-7-one] |  |  | 
13 | 246 | CCOC(=O)c1cnc2c(c1)-c1nccc3ccnc(c13)C2=O [CRL 8482, 10-Ethoxycarbonyl-7H-pyrido[4,3,2-de][1,7]phenanthroline-7-one] |  |  | 
14 | > 260 | COc1cc(OC)c2c(n1)C(=O)c1nccc3ccnc-2c13 [CRL 8485, 9,11-Dimethoxy-7H-pyrido[4,3,2-de][1,7]phenanthroline-7-one] |  |  | 
15 |  | COc1cnc2c3c(nccc13)-c1c(N(C)C)ccnc1C2=O [CRL 8441, 4-Methoxy-11-dimethylamino-7H-pyrido[4,3,2-de][1,7]phenanthroline-7-one] |  | 5000 | > 160
16 |  | CN(C)c1ccnc2c1-c1nccc3ccnc(c13)C2=O [CRL 8367, 11-(Dimethylamino)-7H-pyrido[4,3,2-de][1,7]phenanthroline-7-one] |  | 1650 | 10
17 |  | COc1cnc2c3c(nccc13)-c1ncccc1C2=O [CRL 8400, 4-Methoxy-7H-pyrido[4,3,2-de][1,10]phenanthroline-7-one] |  | 380 | > 160
18 | > 260 | O=C1c2nc(O)ccc2-c2nccc3ccnc1c23 [CRL 8483, 9-Hydroxy-7H-pyrido[4,3,2-de][1,7]phenanthroline-7-one] |  |  | 
19 |  | O=C1c2nccc(O)c2-c2nccc3ccnc1c23 [CRL 8388, 11-Hydroxy-7H-pyrido[4,3,2-de][1,7]phenanthroline-7-one] |  | 6200 | 10
